Assay results taken from patent US20130172320A1, “PYRIDO [4,3-B] INDOLE AND PYRIDO [3,4-B] INDOLE DERIVATIVES AND METHODS OF USE” (priority 2010, published 2013).

What was measured:
[1] = biological target: T1, rat adrenergic α1A receptor (Rattus norvegicus, UniProt P43140); test: Adrenergic α1A radioligand binding ([3H]Prazosin); design: species or system Wistar Rat; conditions: compound at 0.1 μM; read-out: Percentage inhibition of ligand binding, Adrenergic (0.1 μM) a1A
T1 construct: rat adrenergic α1A receptor obtained from Wistar Rat submaxillary glands; from tissue; host or cells: Wistar Rat submaxillary glands
T1 sequence (P43140 1-466): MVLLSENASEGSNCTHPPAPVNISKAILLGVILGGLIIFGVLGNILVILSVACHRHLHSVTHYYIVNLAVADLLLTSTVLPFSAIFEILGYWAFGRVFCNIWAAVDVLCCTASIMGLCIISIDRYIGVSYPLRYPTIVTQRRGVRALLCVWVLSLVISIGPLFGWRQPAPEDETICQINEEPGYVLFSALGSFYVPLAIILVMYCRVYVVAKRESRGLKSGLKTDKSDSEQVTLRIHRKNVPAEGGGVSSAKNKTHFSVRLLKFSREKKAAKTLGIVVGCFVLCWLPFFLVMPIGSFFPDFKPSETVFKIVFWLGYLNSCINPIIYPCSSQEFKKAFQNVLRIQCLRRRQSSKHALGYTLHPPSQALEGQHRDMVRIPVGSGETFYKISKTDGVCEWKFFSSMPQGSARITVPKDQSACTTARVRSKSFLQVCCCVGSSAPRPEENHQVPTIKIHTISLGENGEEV
Description: To evaluate in radioligand binding assays the activity of compounds of the invention, rat adrenergic α1A receptor obtained from Wistar Rat submaxillary glands (Michel, A. et al, Br. J. Pharmacol. 98:883, 1989) in a modified Tris-HCl buffer (50 mM Tris-HCl buffer, pH 7.4, 0.5 mM EDTA) was used. Compounds of the invention were incubated with 0.25 nM [^3H]Prazosin for 60 min at 25° C. Non-specific binding was estimated in the presence of 10 μM phentolamine Receptor proteins were filtered and washed, the filters were then counted to determine [^3H]Prazosin specifically bound. Compounds of the invention were screened at 1 μM or lower, using 1% DMSO as vehicle. Biochemical assay results are presented as the percent inhibition of specific binding in Table 3.

[2] = biological target: T2, human recombinant adrenergic α2C receptor (Homo sapiens, UniProt P18825); test: Adrenergic α2C radioligand binding ([3H]MK-912); conditions: compound at 0.1 μM; read-out: Percentage inhibition of ligand binding, Adrenergic (0.1 μM) a2C
T2 construct: expressed in transfected cells; host or cells: insect Sf9 cells
T2 sequence (P18825 1-462): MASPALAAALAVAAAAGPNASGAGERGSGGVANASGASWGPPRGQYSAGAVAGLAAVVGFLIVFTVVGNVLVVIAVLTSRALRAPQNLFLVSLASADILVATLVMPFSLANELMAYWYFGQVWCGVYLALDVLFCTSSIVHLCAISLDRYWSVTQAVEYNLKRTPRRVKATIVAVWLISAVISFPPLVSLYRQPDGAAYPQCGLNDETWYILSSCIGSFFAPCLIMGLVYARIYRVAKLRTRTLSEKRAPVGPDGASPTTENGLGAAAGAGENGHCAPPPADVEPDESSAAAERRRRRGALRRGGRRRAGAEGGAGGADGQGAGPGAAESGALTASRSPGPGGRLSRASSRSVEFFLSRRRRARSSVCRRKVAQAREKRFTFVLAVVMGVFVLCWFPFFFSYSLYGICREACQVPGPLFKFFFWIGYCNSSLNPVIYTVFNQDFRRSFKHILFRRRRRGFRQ
Description: To evaluate in radioligand binding assays the activity of compounds of the invention, human recombinant adrenergic α2C receptor expressed in insect Sf9 cells (Uhlen, S. et al, J. Pharmacol. Exp. Ther. 271:1558, 1994) in a modified Tris-HCl buffer (50 mM Tris-HCl, pH 7.4, 12.5 mM MgCl2, 2 mM EDTA) was used. Compounds of the invention were incubated with 1 nM [^3H]MK-912 for 60 min at 25° C. Non-specific binding was estimated in the presence of 10 μM WB-4101. Receptor proteins were filtered and washed, the filters were then counted to determine [^3H]MK-912 specifically bound. Compounds were screened at 1 μM or lower, using 1% DMSO as vehicle. Biochemical assay results are presented as the percent inhibition of specific binding in Table 3.

[3] = biological target: T3, human recombinant adrenergic α2B receptor (Homo sapiens, UniProt P18089); test: Adrenergic α2B radioligand binding ([3H]Rauwolscine); conditions: compound at 0.1 μM; read-out: Percentage inhibition of ligand binding, Adrenergic (0.1 μM) a2B
T3 construct: expressed in transfected cells; host or cells: Chinese hamster ovary (CHO) K1 cells
T3 sequence (P18089 1-450): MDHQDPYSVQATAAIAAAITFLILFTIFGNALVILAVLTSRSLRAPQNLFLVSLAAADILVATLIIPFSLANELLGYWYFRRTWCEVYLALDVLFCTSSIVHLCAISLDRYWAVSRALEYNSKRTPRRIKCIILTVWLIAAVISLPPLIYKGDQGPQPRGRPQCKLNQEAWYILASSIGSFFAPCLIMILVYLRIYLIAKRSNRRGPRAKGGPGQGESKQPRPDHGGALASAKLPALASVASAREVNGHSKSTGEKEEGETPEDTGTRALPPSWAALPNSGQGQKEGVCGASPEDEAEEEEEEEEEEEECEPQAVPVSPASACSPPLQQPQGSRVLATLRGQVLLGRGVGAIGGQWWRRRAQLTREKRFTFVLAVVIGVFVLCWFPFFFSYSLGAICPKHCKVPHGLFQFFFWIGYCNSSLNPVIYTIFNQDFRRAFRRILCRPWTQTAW
Description: To evaluate in radioligand binding assays the activity of compounds of the invention, human recombinant adrenergic α2B receptor expressed in Chinese hamster ovary (CHO) K1 cells (Uhlen, S. et al, Eur. J. Pharmacol. 343(1):93, 1998) in a modified Tris-HCl buffer (50 mM Tris-HCl, pH 7.4, 12.5 mM MgCl2, 1 mM EDTA, 0.2% BSA) was used. Compounds of the invention were incubated with 2.5 nM [^3H]Rauwolscine for 60 min at 25° C. Non-specific binding was estimated in the presence of 10 μM Prozosin. Receptor proteins were filtered and washed, the filters were then counted to determine [^3H]Rauwolscine specifically bound. Compounds were screened at 1 μM or lower, using 1% DMSO as vehicle. Biochemical assay results are presented as the percent inhibition of specific binding in Table 3.

| SMILES | inhibition at 0.1 µM [1] | inhibition at 0.1 µM [2] | inhibition at 0.1 µM [3] |
| --- | --- | --- | --- |
| Cc1ccc2c(c1)c1c(n2C)C(C)(CCc2nc(-c3ccccc3)cs2)CN(C)C1 (stereo not drawn) [Compound 48] | 34% | 15% | -12% |
| C#CCC1(C)CN(C)Cc2c1n(C)c1ccc(C)cc21 (stereo not drawn) [Compound 47, 2,4,5,8-tetramethyl-4-(prop-2-ynyl)-2,3,4,5-tetrahydro-1H-pyrido[4,3-b]indole] | 16% | 8% | 32% |
